Results reported in publication PMC9738927, “A Newly Identified Monoterpenoid-Based Small Molecule Able to Support the Survival of Primary Cultured Dopamine Neurons and Alleviate MPTP-Induced Toxicity In Vivo” (Molecules, 2022).

How the values were obtained:
[1] = test system: naïve primary midbrain dopamine neurons; assay: Survival of naïve cultured dopamine neurons (TH-positive cell count); type: cell-based, mouse
Experimental: (§1) We developed a compound library containing 20 diol derivatives and screened them on cultured primary DA neurons (Supplementary Materials, Table S1). Compounds were taken at a dose of 0.1 and 1 μM (based on effective doses for the epoxydiol). Based on the screening results, we selected four compounds and tested them in a naïve and MPP^+-treated (1-methyl-4-phenylpyridinium (MPP^+), the neurotoxic metabolite of MPTP) DA culture at 1, 10, and 100 nM to select the compound with the lowest effective dose.
(§2) The survival of cultured mouse DA neurons was assessed as described before. Briefly, naïve or MPP^+ (dopaminergic selective neurotoxin)-challenged embryonic midbrain neurons were cultured in the presence or absence of a diol-like compound. The number of survived DA neurons was estimated after immunocytochemical staining with antibodies recognizing the key enzyme of dopamine synthesis—tyrosine hydroxylase.

[2] = test system: MPTP-lesioned C57BL/6 mice; assay: DA and DOPAC levels in midbrain and striatum by HPLC-ED after MPTP lesion; type: in vivo
Experimental: Neurochemical analyses via HPLC-ED were conducted as described before. Microdissected samples of the striatum (ST) and midbrain were homogenized in 300 and 400 µL of cold 0.6 M HClO4, respectively, using a motor-driven grinder (Z359971, Sigma-Aldrich, USA) and the homogenate was spun for 15 min at 12,000 rpm (+4 °C). The pellet was diluted in 1 mL of 0.1 M NaCl and used for protein quantitation by Bradford (Bio Rad, USA) according to the manufacturer’s protocol. The clear supernatant was diluted twice with pure water and used for assay of DA and […] (DOPAC) by HPLC on Luna C18(2) column (5 μm particle size, L × I.D. 75 × 4.6 mm, Phenomenex, Torrance, CA, USA) with electrochemical detection (750 mV, DECADE II™ Electrochemical Detector; Antec, The Netherlands). The standard mixes containing 1, 2, and 3 ng of DA and DOPAC were repeatedly assayed throughout the entire procedure and used to plot the calibration curves for each substance. The areas of peaks were estimated using LabSolution LG/GC software version 5.54 (Shimadzu Corporation, Japan) and calibrated against the calibrated curves for corresponding standards. The contents of DA and DOPAC were expressed nanogram (ng) per milligram (mg) of protein assayed by Bradford.

[3] = test system: naïve primary midbrain dopamine neurons; set-up: method as in PMID 31464415; details: cultured DA neurons; cited from earlier work
MPTP-treated mice = test system: MPTP-treated mice; set-up: method as in PMID 31464415; details: related compound; cited from earlier work
[4] = test system: MPP^+-treated primary midbrain dopamine neurons; assay: Survival of MPP+-challenged cultured dopamine neurons (TH-positive cell count); type: cell-based, mouse
Experimental: as §1, §2

[5] = 1 uM, compared to VEH-treated wells
[6] = positive control, compared to VEH

Molecule: C=C(CSc1ccc(Cl)cc1)C1CC2OC2(C)C(O)C1O (stereo not drawn) [Substance 9]
- Support effect / inhibition, Naïve dopamine neurons, 1 uM [1, 5]: - (29-1% – -)

Molecule: C=C(C)[C@@H]1CC=C(C)[C@@H](OC(C)=O)[C@@H]1OC(C)=O [Substance 1]
- inhibition at 1 µM ([1]; Mus musculus, Neuron, 1 uM, compared to VEH-treated wells, read-out: Support effect / inhibition, Naïve dopamine neurons, 1 uM): 1 to 29%

Molecule: N[C@@H](Cc1ccc(O)c(O)c1)C(=O)O [L-DOPA, reference compound]
- MPTP-induced reduction in DA level in the midbrain [2]: tended to alleviate

Molecule: C=C(CSCc1ccccc1)C1CC2OC2(C)C(O)C1O (stereo not drawn) [Substance 13]
- Support effect / inhibition, Naïve dopamine neurons, 1 uM [1, 5]: - (29-1% – -)

Molecule: C=C(C)[C@@H]1C[C@H]2O[C@@]2(C)[C@@H](O)[C@@H]1O [epoxydiol]
- effective concentration in survival assay for DA neurons [3]: 100 nM
- effective doses in survival assay of cultured dopamine neurons [3]: 0.1 to 1 µM
- antiparkinsonian activity in vivo (effective dose) (MPTP-treated mice): 20 mg/kg

Molecule: C=CC1(O)C(O)C(C)=CCC1C(=C)C (stereo not drawn) [Substance 8]
- Support effect / inhibition, MPP+-treated dopamine neurons, 1 nM ([4]; 1 nM, compared to VEH-treated wells): 0 (0% – 0)
- Support effect / inhibition, MPP+-treated dopamine neurons, 10 nM ([4]; 10 nM, compared to VEH-treated wells): 0 (0% – 0)
- Support effect / inhibition, MPP+-treated dopamine neurons, 100 nM ([4]; 100 nM, compared to VEH-treated wells): 0 (0% – 0)

Molecule: C=C(CSCC(C)C)C1CC2OC2(C)C(O)C1O (stereo not drawn) [Substance 11]
- Support effect / inhibition, Naïve dopamine neurons, 1 uM [1, 5]: - - (Inhibition 69-30% – - -)

Molecule: C#CC1(O)C(O)C(C)=CCC1C(=C)C (stereo not drawn) [Substance 7]
- Support effect / inhibition, Naïve dopamine neurons, 1 uM [1, 5]: - (29-1% – -)

Molecule: C=C(CSC(C)(C)C)C1CC2OC2(C)C(O)C1O (stereo not drawn) [Substance 10]
- Support effect / inhibition, Naïve dopamine neurons, 1 uM [1, 5]: - (29-1% – -)

B1: GDNF: glial cell line-derived neurotrophic factor, positive control in the neuron survival assays (protein, UniProt P39905 78-211, looked up)
Glial cell line-derived …: SPDKQMAVLPRRERNRQAAAANPENSRGKGRRGQRGKNRGCVLTAIHLNVTDLGLGYETKEELIFRYCSGSCDAAETTYDKILKNLSRNRRLVSDKVGQACCRPIAFDDDLSFLDDNLVYHILRKHSAKRCGCI
- survival of MPP+-treated primary midbrain dopamine neurons [4, 6]: promotes the survival
- survival of naïve primary midbrain dopamine neurons [1, 6]: promotes the survival
